The values below come from PubChem BioAssay AID328 (DTP/NCI, 2004).

This test concerns BDF1 mice, P388 leukemia ip, median survival T/C. The test is described as follows: NCI In Vivo Anticancer Drug Screen. Data for tumor model P388 Leukemia (intraperitoneal) in B6D2F1 (BDF1) mice. The settings on record: endpoint: median survival time, higher = longer survival. The method, boiled down: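 Compound-treated tumour-bearing mice were compared with vehicle-treated controls. Survival was recorded, and the value is the treated-group measurement divided by the control-group measurement (T/C).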

Where [1] appears, read: dose: 100.0 mg/kg/injection, schedule: Q01DX009 (ip), vehicle: saline with Tween-80.
Where [2] appears, read: dose: 200.0 mg/kg/injection, schedule: Q01DX009 (ip), vehicle: saline with Tween-80.
The mark [3] stands for this setting: dose: 12.5 mg/kg/injection, schedule: Q01DX009 (ip), vehicle: saline.
Setting [4] is: dose: 25.0 mg/kg/injection, schedule: Q01DX009 (ip), vehicle: saline.
[5] abbreviates: dose: 50.0 mg/kg/injection, schedule: Q01DX009 (ip), vehicle: saline.
The mark [6] stands for this setting: dose: 100.0 mg/kg/injection, schedule: Q01DX009 (ip), vehicle: Klucel (hydroxypropylcellulose) (HPC).
Where [7] appears, read: dose: 200.0 mg/kg/injection, schedule: Q01DX009 (ip), vehicle: Klucel (hydroxypropylcellulose) (HPC).
[8] abbreviates: dose: 6.25 mg/kg/injection, schedule: Q01DX009 (ip), vehicle: saline.
Setting [9] is: dose: 50.0 mg/kg/injection, schedule: Q01DX009 (ip), vehicle: saline with Tween-80.
Setting [10] is: dose: 12.5 mg/kg/injection, schedule: Q01DX009 (ip), vehicle: saline with Tween-80.
Setting [11] is: dose: 25.0 mg/kg/injection, schedule: Q01DX009 (ip), vehicle: saline with Tween-80.

Where “and” joins values, the source holds several entries; their conditions need not be identical. Identical values can stand only once. Toxic doses and inconclusive results are not listed.

`CNC1=C(N2CC2)C(=O)C(NC)=C(N2CC2)C1=O`: the T/C was 159 % of control (dose: 0.05 mg/kg/injection, schedule: Q01DX009 (ip), vehicle: saline); 151 % of control and 169 % of control (dose: 0.1 mg/kg/injection, schedule: Q01DX009 (ip), vehicle: saline); 195 % of control (dose: 0.2 mg/kg/injection, schedule: Q01DX009 (ip), vehicle: saline).

For `O=C(Nc1cccc(S(=O)(=O)F)c1)c1ccc(COc2ccc([N+](=O)[O-])cc2Cl)cc1`, the T/C reads like this: under setting [1], 91 % of control; under setting [2], 91 % of control.

Turning to `CNC(C)(C)CO`, the T/C was 105 % of control (dose: 100.0 mg/kg/injection, schedule: Q01DX009 (ip), vehicle: saline); 104 % of control (dose: 100.0 mg/kg/injection, schedule: Q04DX003 (ip), vehicle: saline); 115 % of control (dose: 200.0 mg/kg/injection, schedule: Q01DX009 (ip), vehicle: saline); 95 % of control (dose: 200.0 mg/kg/injection, schedule: Q04DX003 (ip), vehicle: saline); 95 % of control (dose: 400.0 mg/kg/injection, schedule: Q04DX003 (ip), vehicle: saline).

As for `Nc1ncnc2c1ccn2C1OC2COP(=O)(O)OC2C1O` (stereo not given), the T/C (dose: 0.63 mg/kg/injection, schedule: Q01DX010 (ip), vehicle: saline) is 100 % of control; the T/C (dose: 1.25 mg/kg/injection, schedule: Q01DX010 (ip), vehicle: saline) is 110 % of control; the T/C (dose: 5.0 mg/kg/injection, schedule: Q01DX010 (ip), vehicle: saline) is 150 % of control.

With `CCN(C(=O)CCl)C(C)(C)C(SSSC(c1ccc(Cl)cc1)C(C)(C)N(CC)C(=O)CCl)c1ccc(Cl)cc1` (stereo not given), the T/C under setting [3] was 118 % of control; the T/C (dose: 16.5 mg/kg/injection, schedule: Q01DX009 (ip), vehicle: saline) was 116 % of control; the T/C under setting [4] was 116 % of control; the T/C (dose: 37.5 mg/kg/injection, schedule: Q01DX009 (ip), vehicle: saline) was 116 % of control; the T/C under setting [5] is 118 % of control.

With `O=S1(=O)CCN(CCc2ccccc2)CC1`, the T/C (dose: 50.0 mg/kg/injection, schedule: Q01DX009 (ip), vehicle: Klucel (hydroxypropylcellulose) (HPC)) is 94 % of control; the T/C under setting [6] is 90 % of control; the T/C under setting [7] is 96 % of control.

For the compound `C[n+]1c(-c2ccccc2)c2ccccc2c2ccccc21`, the T/C runs as follows: (dose: 0.75 mg/kg/injection, schedule: Q01DX009 (ip), vehicle: water) 102 % of control; (dose: 1.5 mg/kg/injection, schedule: Q01DX009 (ip), vehicle: water) 105 % of control; (dose: 1.5 mg/kg/injection, schedule: Q04DX003 (ip), vehicle: water) 111 % of control; (dose: 3.0 mg/kg/injection, schedule: Q01DX009 (ip), vehicle: water) 105 % of control; (dose: 3.0 mg/kg/injection, schedule: Q04DX003 (ip), vehicle: water) 111 % of control; (dose: 6.0 mg/kg/injection, schedule: Q04DX003 (ip), vehicle: water) 93 % of control.

With `CSc1cc(C)c(O)c(CO)c1`, the T/C reads like this: (dose: 100.0 mg/kg/injection, schedule: Q01DX009 (ip), vehicle: other) 100 % of control; (dose: 200.0 mg/kg/injection, schedule: Q01DX009 (ip), vehicle: other) 95 % of control; (dose: 400.0 mg/kg/injection, schedule: Q01DX009 (ip), vehicle: other) 95 % of control.

`Nc1nc2c(ncn2C2OC(CO)C(O)C2N)c(=O)[nH]1` (stereo not given): the T/C reads like this: (dose: 3.12 mg/kg/injection, schedule: Q01DX009 (ip), vehicle: saline) 111 % of control; under setting [8], 111 % of control and 124 % of control; under setting [3], 102 % of control and 117 % of control; under setting [4], 93 % of control and 111 % of control; under setting [5], 108 % of control; (dose: 100.0 mg/kg/injection, schedule: Q04DX003 (ip), vehicle: saline with Tween-80) 109 % of control. Also, the T/C (dose: 400.0 mg/kg/injection, schedule: Q04DX003 (ip), vehicle: saline with Tween-80) was 100 % of control.

`CN/N=C/c1c2c(O)c3c(O)c(C)c4c(c3c1O)C(=O)C(C)(O/C=C/C(OC)C(C)C(OC(C)=O)C(C)C(O)C(C)C(O)C(C)/C=C/C=C(/C)C(=O)N2)O4` (stereo not given): the T/C under setting [9] is 90 % of control, the T/C under setting [1] was 116 % of control and the T/C under setting [2] was 117 % of control.

Turning to `O=[N+]([O-])c1cc([N+](=O)[O-])c(Cl)cc1Cl`, the T/C is, setting by setting: (dose: 3.13 mg/kg/injection, schedule: Q01DX009 (ip), vehicle: Klucel (hydroxypropylcellulose) (HPC)) 104 % of control; (dose: 6.25 mg/kg/injection, schedule: Q01DX009 (ip), vehicle: Klucel (hydroxypropylcellulose) (HPC)) 104 % of control; (dose: 12.5 mg/kg/injection, schedule: Q01DX009 (ip), vehicle: Klucel (hydroxypropylcellulose) (HPC)) 109 % of control; (dose: 50.0 mg/kg/injection, schedule: Q04DX003 (ip), vehicle: Klucel (hydroxypropylcellulose) (HPC)) 103 % of control; (dose: 200.0 mg/kg/injection, schedule: Q04DX003 (ip), vehicle: Klucel (hydroxypropylcellulose) (HPC)) 92 % of control.

For the compound `Nc1ccc(CCc2ccc(N)cc2[N+](=O)[O-])c([N+](=O)[O-])c1`, the T/C is, setting by setting: under setting [6], 100 % of control; under setting [7], 100 % of control; (dose: 400.0 mg/kg/injection, schedule: Q01DX009 (ip), vehicle: Klucel (hydroxypropylcellulose) (HPC)) 100 % of control.

For `Oc1cc(CN2CCCC2)c(O)cc1CN1CCCC1`, the T/C is, setting by setting: under setting [10], 111 % of control; under setting [11], 106 % of control; under setting [9], 111 % of control; under setting [1], 122 % of control.

`N#CC12CC3CC(CC(C3)C1)C2`: the T/C reads like this: (dose: 5.0 mg/kg/injection, schedule: Q01DX009 (ip), vehicle: saline with Tween-80) 100 % of control; (dose: 20.0 mg/kg/injection, schedule: Q01DX009 (ip), vehicle: saline with Tween-80) 88 % of control.

For `CCCCCOc1cc(C(C)=O)cc(OC)c1OC(=O)c1cc([N+](=O)[O-])cc([N+](=O)[O-])c1`, the T/C runs as follows: (dose: 100.0 mg/kg/injection, schedule: Q01DX001 (ip), vehicle: saline with Tween-80) 100 % of control; (dose: 200.0 mg/kg/injection, schedule: Q01DX001 (ip), vehicle: saline with Tween-80) 90 % of control; (dose: 400.0 mg/kg/injection, schedule: Q01DX001 (ip), vehicle: saline with Tween-80) 90 % of control.

On to `Cc1nnc2ccnn2c1C`, for which the T/C is, setting by setting: (dose: 1.56 mg/kg/injection, schedule: Q01DX009 (ip), vehicle: saline) 108 % of control; (dose: 3.13 mg/kg/injection, schedule: Q01DX009 (ip), vehicle: saline) 102 % of control; under setting [8], 108 % of control; under setting [3], 100 % of control.

For `CC[C@H](CC[C@@H](C)[C@H]1CC[C@H]2[C@@H]3CC=C4C[C@@H](OC(=O)CSC(CC(=O)O)C(=O)O)CC[C@]4(C)[C@H]3CC[C@]12C)C(C)C` (stereo not given in full), the T/C runs as follows: under setting [6], 109 % of control; under setting [7], 104 % of control.

In the case of `COc1ccc(NC(=S)Nc2ccccn2)cc1`, the T/C by setting is: under setting [10], 100 % of control; under setting [11], 100 % of control; under setting [9], 104 % of control; (dose: 100.0 mg/kg/injection, schedule: Q01DX001 (ip), vehicle: saline) 103 % of control; under setting [1], 100 % of control; (dose: 200.0 mg/kg/injection, schedule: Q01DX001 (ip), vehicle: saline) 111 % of control. The T/C reads like this: under setting [2], 96 % of control; (dose: 400.0 mg/kg/injection, schedule: Q01DX001 (ip), vehicle: saline) 107 % of control; (dose: 400.0 mg/kg/injection, schedule: Q01DX009 (ip), vehicle: saline with Tween-80) 104 % of control.

As to `CC1=CC(=O)c2c(O)cc(C)c(C(=O)C(Cl)Cl)c2C1=O`, the T/C runs as follows: (dose: 10.0 mg/kg/injection, schedule: Q01DX009 (ip), vehicle: Klucel (hydroxypropylcellulose) (HPC)) 112 % of control; (dose: 20.0 mg/kg/injection, schedule: Q01DX009 (ip), vehicle: Klucel (hydroxypropylcellulose) (HPC)) 112 % of control.

For the compound `O=C(NC(=S)N1CC1)c1ccccc1`, the T/C is, setting by setting: under setting [9], 93 % of control; under setting [1], 92 % of control; under setting [2], 104 % of control.

For `C=C(C)C(=O)NCCC(=O)Oc1ccc([N+](=O)[O-])cc1`, the T/C under setting [9] was 95 % of control, the T/C under setting [1] is 87 % of control and the T/C under setting [2] was 86 % of control.
